In US9567301B2, “Pyrrol-1-yl benzoic acid derivatives useful as myc inhibitors” (Whitehead Institute for Biomedical Research, priority 2012, dated 2017):
“Also recorded” adds a separate entry of the source. Where two headings read alike, the source gives them in different places. One block for each molecule: values may come before it.

Legend:
[1] = tested on: H2171 cells; assay: Cell viability assay (ATPlite), H2171; format: cell-based, human; settings: for EC50: cell viability, three days, ATPlite, NA: inactive under assay conditions
Outline: (§1)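 Cells seeded at 60,000 cells/mL and dosed immediately by pin transfer in 10-point quadruplicate dose response from DMSO stocks. After three days at 37 °C, viability was read by ATPlite luminescence after 15 min at room temperature.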

[2] = tested on: MM1S cells; assay: Cell viability assay (ATPlite), MM1S; format: cell-based, human; settings: for EC50: cell viability, three days, ATPlite, NA: inactive under assay conditions
Outline: as §1

[3] = tested on: Jurkat cells; assay: Cell viability assay (ATPlite), Jurkat; format: cell-based, human; settings: Homo sapiens, Jurkat; class symbols; NA: not active under assay conditions
Procedure: This assay was used for the H2171 and MM1S cell data shown in Table 2, and for the Jurkat (an immortalized line of human T lymphocyte cells), Ly1 (OCI-Ly1 human non-Hodgkin lymphoma cell line), Ly4 (OCI-Ly4 human non-Hodgkin lymphoma cell line), H2172 (NCI-H2172 human non-small cell lung cancer cell line), and CA-46 (a human Burkitt's lymphoma cell line) cell data shown in Table 3 and FIG. 12. Cells were counted and adjusted to 60,000 cells/mL. Using a Biotek EL406, 50 μL of cells are media were distributed into 384 well white plates from Thermo. Immediately after plating, compound in DMSO was distributed to plates. For large plate sets, cells were returned to 37° C. incubator while not in use.
Compounds were added to plates using a 100 nL 384 well pin transfer manifold on a Janus workstation. Stocks were arrayed in 10 point quadruplicate dose response in DMSO stock in 384 well Greiner compound plates. After addition of compound, plates were incubated for three days in a 37° C. incubator.
Cell viability was read out using ATPlite from Perkin Elmer. Plates were removed from the incubator and brought to room temperature prior to use. Lyophilized powder was resuspended in lysis buffer and diluted 1:2 with DI water. 25 μL of this solution was added to each well using the Biotek liquid handler. Plates were sealed with adherent aluminum seals prior to vortexing and spinning down at 1000 g for 1 minute. Plates were incubated for 15 minutes at room temperature before signal was read on an Envision Plate Reader.

[4] = biological target: T1, c-Myc/Max/Ebox DNA (Homo sapiens, UniProt P01106); assay: c-Myc/Max/Ebox DNA AlphaScreen assay; format: binding; set-up: An exemplary assay uses full-length human c-Myc and Max proteins; his6 (cleaved yes); made in house
T1 sequence (P01106 16-454): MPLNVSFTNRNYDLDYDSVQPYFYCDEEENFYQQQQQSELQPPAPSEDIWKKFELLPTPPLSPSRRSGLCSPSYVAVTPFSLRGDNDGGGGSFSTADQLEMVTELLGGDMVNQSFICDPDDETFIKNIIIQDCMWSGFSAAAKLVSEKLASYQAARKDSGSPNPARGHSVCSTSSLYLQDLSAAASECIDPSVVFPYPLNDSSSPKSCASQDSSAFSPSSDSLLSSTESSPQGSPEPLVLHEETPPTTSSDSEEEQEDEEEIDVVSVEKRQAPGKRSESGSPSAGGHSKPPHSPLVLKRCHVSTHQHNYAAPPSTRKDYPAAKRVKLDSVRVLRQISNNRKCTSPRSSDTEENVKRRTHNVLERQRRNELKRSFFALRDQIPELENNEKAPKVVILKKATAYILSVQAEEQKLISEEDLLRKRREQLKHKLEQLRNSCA
Outline: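 Free c-Myc (25 nM), made by thrombin removal of the His6 tag, is pre-mixed with biotin-Ebox DNA (10 nM) and Ni acceptor beads before compound addition, then His6-Max (1.25 nM) and streptavidin donor beads are added. Buffer is HEPES pH 8.0 with BSA, Tween20, glycogen and DTT. Read after 2 h, excitation 680 nm, emission 520–620 nm.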

[5] = biological target: T1, c-Myc/Max/Ebox DNA; assay: Gelshift assay, c-Myc/Max/Ebox DNA complex formation; format: binding
Procedure: FIG. 5 describes validation of Compound 63 activity using an orthogonal biochemical assay. […] Decreasing amounts of 63 was added to purified c-Myc, Max and biotinylated Ebox DNA. Biotinylated Ebox DNA complexed with protein (either c-Myc/Max or Max/Max) or free (bottom band) was assayed using a 6% retardation gel, transferred to a membrane and detected using straptavidin-HRP. […]
(§2) AlphaScreen hits can be validated using orthogonal biochemical assays such as a gelshift assay (also called an electrophoretic mobility shift assay) with purified components or cellular lysates. FIG. 5 (left) illustrates how the AlphaScreen hit 63 was validated using a gelshift assay with purified c-Myc, Max and Ebox DNA. […] Compounds and analogs were then examined for potency and selectivity against structurally similar transcription factor:DNA complexes, such as Max/Max/Ebox DNA and MITF/MITF/Ebox DNA. Data in FIG. 9 show how analogs can be tested for potency against structurally similar transcription factors and how medicinal chemistry optimization can drive potency and selectivity against different transcription factor:DNA complexes. […] The selectivity among structurally similar transcription factors can also provide insights into compound mechanism of action. […] Cellular assays can compliment the biochemical analyses to measure the cellular potency of compounds to induce cellular phenotypes expected as a result of loss of transcription factor function. This includes gene expression analysis, chromatin immunoprecipitation (ChIP) analysis, cellular proliferation analysis and cell state analysis. Gene expression analysis can be performed using qRT-PCR, Nanostring technology, microarray technology, or RNA-seq technology to study transcript changes following treatment with compound. ChIP analysis can be performed on the factor of interest to study if compound treatment alters its genomic occupancy. Cellular proliferation and cell state analysis can indicate if the compound alters cell cycle progression or cellular identity. Thus, the approach using biochemical and cellular assays with large chemical libraries or focused libraries of hits identified in high throughput screens can serve as a platform to develop inhibitors of transcription factor function.

[6] = biological target: T2, c-Myc (Homo sapiens, UniProt P01106); assay: c-Myc chromatin immunoprecipitation assay in H2171 cells; format: cell-based; settings: 100 μM, 4 hours
T2 construct: c-Myc genomic occupancy in H2171 cells treated with DMSO, Compound 63 (100 μM) or CC34301 (100 μM); endogenous in cells; host or cells: H2171
T2 sequence (P01106 whole entry): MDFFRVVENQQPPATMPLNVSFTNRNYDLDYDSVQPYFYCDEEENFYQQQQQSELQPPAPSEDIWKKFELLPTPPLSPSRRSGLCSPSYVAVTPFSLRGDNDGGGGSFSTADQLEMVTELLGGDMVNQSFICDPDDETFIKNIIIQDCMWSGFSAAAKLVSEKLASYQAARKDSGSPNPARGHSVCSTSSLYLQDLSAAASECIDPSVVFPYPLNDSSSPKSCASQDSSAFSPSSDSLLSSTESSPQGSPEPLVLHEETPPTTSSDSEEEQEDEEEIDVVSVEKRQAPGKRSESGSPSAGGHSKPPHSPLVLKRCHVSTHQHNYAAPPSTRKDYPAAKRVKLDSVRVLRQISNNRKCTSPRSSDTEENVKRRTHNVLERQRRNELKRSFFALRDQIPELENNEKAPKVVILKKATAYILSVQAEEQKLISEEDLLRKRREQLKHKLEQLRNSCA
Procedure: FIG. 6 depicts a c-Myc chromatin immunoprecipitation assay to investigate c-Myc genomic occupancy in H2171 cells treated with DMSO, Compound 63 (100 μM) or CC34301 (100 μM) for 4 hours. Standard chromatin immunoprecipitation procedures were followed using an antibody specific to c-Myc (Santa Cruz, catalogue number sc-764). Quantitative PCR analysis was performed on four c-Myc binding sites (Npm1, Mat2a, Hnrnpa2b1, and Rp123a) and one non-binding site (Neg region) and normalized to a background region to determine the fold enrichment over background.

[7] = tested on: HL-60 promyelocytic leukemia cells; assay: HL-60 differentiation (qRT-PCR, FACS); format: cell-based, human; settings: HL-60 cells
Procedure: FIG. 7 depicts the assessment of on-target activity versus general toxicity. HL-60 promyelocytic leukemia cells express high levels of c-Myc to maintain a proliferative and undifferentiated cell state. Loss of c-Myc function results in loss of cellular proliferation and induction of cellular differentiation. HL-60 cells were treated with DMSO, 64 (12.5 μM or 25 μM), or 151 (25 μM) for four days.

[8] = biological target: T3, MITF/MITF/Ebox DNA (Homo sapiens, UniProt O75030); assay: Gelshift assay, MITF/MITF/Ebox DNA complex formation; format: binding; settings: relative to DMSO at 2.5 µM (FIG. 9)
T3 sequence (O75030 1-526): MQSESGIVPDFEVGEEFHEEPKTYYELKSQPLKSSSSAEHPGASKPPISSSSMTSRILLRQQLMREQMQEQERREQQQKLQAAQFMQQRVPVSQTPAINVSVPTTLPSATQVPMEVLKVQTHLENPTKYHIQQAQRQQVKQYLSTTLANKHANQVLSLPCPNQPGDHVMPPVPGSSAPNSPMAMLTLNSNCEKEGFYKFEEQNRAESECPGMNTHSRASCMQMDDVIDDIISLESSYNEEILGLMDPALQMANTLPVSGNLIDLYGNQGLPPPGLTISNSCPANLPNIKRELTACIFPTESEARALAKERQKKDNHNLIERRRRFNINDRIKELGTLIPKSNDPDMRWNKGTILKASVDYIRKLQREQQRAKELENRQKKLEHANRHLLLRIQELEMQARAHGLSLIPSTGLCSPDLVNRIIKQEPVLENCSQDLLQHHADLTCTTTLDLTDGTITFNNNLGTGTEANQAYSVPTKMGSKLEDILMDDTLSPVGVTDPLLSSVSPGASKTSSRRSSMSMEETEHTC
Procedure: (§3) Compounds tested at 2.5 μM for their inhibitory activity against c-Myc/Max/Ebox DNA, Max/Max/Ebox DNA and MITF/MITF/Ebox DNA complex formation using gelshift assays.
as §2

[9] = biological target: Max/Max/Ebox DNA (Homo sapiens, UniProt P61244); assay: Gelshift assay, Max/Max/Ebox DNA complex formation; format: binding; settings: relative to DMSO at 2.5 µM (FIG. 9)
Sequence of Max/Max/Ebox DNA (P61244 whole entry): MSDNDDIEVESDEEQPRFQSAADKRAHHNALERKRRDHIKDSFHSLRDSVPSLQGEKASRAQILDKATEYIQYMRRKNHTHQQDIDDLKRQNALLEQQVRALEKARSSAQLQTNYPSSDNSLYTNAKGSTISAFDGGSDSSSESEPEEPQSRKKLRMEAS
Procedure: as §3
as §2, with “Gene expression analysis can be performed using qRT-PCR, Nanostring technology, microarray technology, or RNA-seq technology to study transcript changes following treatment with compound. ChIP analysis can be performed on the factor of interest to study if compound treatment alters its genomic occupancy. Cellular proliferation and cell state analysis can indicate if the compound alters cell cycle progression or cellular identity. Thus, the approach using biochemical and cellular assays with large chemical libraries or focused libraries of hits identified in high throughput screens can serve as a platform to develop inhibitors of transcription factor function.” left out

[10] = tested on: protein:DNA complex; assay: Comparative biochemical analyses of protein:DNA complex formation (FIG. 10); format: binding; settings: FIG. 10, DNA intercalator comparison
[11] = class symbols, NA: not active under assay conditions, read-out: Myc/Max IC50
[12] = c-Myc/Max/Ebox DNA AlphaScreen, NA: inactive under assay conditions, read-out: Biochemical IC50
[13] = relative to DMSO at 2.5 mM (FIG. 9)

EC50 [1]: 93.5 µM
EC50 [2]: 132 µM
EC50 [3]: ≥ 100 µM
IC50 [4, 11]: 10 to 100 µM
Structure (SMILES): Cc1ccc(C)n1-c1ccccc1C(=O)O [Compound 1]

EC50 ([1]; Homo sapiens, NCI-H2171, 72 h): 29.9 µM
EC50 ([2]; Homo sapiens, MM1.S, 72 h): 52.3 µM
EC50 [3]: 10 to 100 µM
IC50 [4, 12]: 155 µM
IC50 [4, 11]: ≥ 100 µM
Structure (SMILES): CC(=O)OCOC(=O)c1ccccc1-n1c(C)ccc1C [Compound 64]
cellular activity in cellular proliferation assay ([1]; H2171, relative to free acid Compound 63 (FIG. 3)): increased cellular activity
cellular activity/potency in cellular proliferation assay ([2]; MM1.S, prodrug relative to free acid (FIG. 3, FIG. 4)): increased cellular activity
expression of differentiation markers (qRT-PCR) ([7]; 12.5 μM or 25 μM, four days): induces the expression of three differentiation markers (CD14, CD11c, and CCL4)
differentiation marker CD11c (FACS) ([7]; 4 days): express the differentiation marker CD11c

c-Myc/Max/Ebox DNA complex formation [5, 13]: disrupted
MITF/MITF/Ebox DNA complex formation [8]: disrupted
IC50 [4, 12]: 0.531 µM
Structure (SMILES): Cc1ccc(C)n1-c1cc(C(=O)N/N=C/c2ccc(O)c(O)c2O)ccc1C(=O)O [Compound 79]

EC50 ([2]; Homo sapiens, MM1.S, 72 h): 731 µM
MITF/MITF/Ebox DNA complex formation [8]: most potent of the compounds tested
IC50 [4, 12]: 1.66 µM
Structure (SMILES): Cc1ccc(C)n1-c1cc(C(=O)N/N=C/c2ccc(-c3nnn[nH]3)cc2)ccc1C(=O)O [Compound 92]

EC50 [3]: 10 to 100 µM
IC50 [4, 11]: ≥ 100 µM
Structure (SMILES): COc1cccc([C@H]2CN(C(=O)c3ccc(C(=O)O)c(-n4c(C)ccc4C)c3)C[C@@H]2O)c1 [Compound 225]

EC50 [3]: ≥ 100 µM
IC50 [4, 11]: 10 to 100 µM
Structure (SMILES): Cc1ccc(C)n1-c1cc(C(=O)N2CCN(C(=O)c3cncc(F)c3)CC2)ccc1C(=O)O [Compound 226]

The next lines start with the molecule.

Structure (SMILES): Cc1ccc(C)n1-c1ccccc1C(=O)O [Compound 63, 2-(2,5-dimethylpyrrolyl)benzoic acid]
EC50 ([1]; Homo sapiens, NCI-H2171, 72 h): 96.9 µM
EC50 [2]: 322 µM
selectivity c-Myc/Max versus Max/Max ([5]; at tested doses (FIG. 5)): selectivity towards c-Myc/Max
c-Myc/Max/Ebox DNA complex formation ([5]; decreasing amounts of compound (FIG. 5)): reduced c-Myc/Max/Ebox DNA complex formation in a dose-dependent manner; also recorded: inhibits c-Myc/Max/Ebox DNA complex formation (top band) in a dose dependent manner
Max genomic occupancy [6]: largely unchanged
c-Myc protein levels [6]: unchanged
c-Myc occupancy at binding sites (Npm1, Mat2a, Hnrnpa2b1, Rp123a) ([6]; compared to DMSO or CC34301): reduced c-Myc occupancy
IC50 [4, 12]: 24.2 µM

Structure (SMILES): Cc1ncc(CO)c(/C=N/NC(=O)c2ccc(C(=O)O)c(-n3c(C)ccc3C)c2)c1O [Compound 80]
EC50 ([1]; Homo sapiens, NCI-H2171, 72 h): 400 µM
EC50 [3]: ≥ 100 µM
IC50 [4, 11]: 1 to 10 µM

Structure (SMILES): Cc1ccc(C)n1-c1cc(C(=O)N/N=C/c2cccc(C(=O)O)c2)ccc1C(=O)O [Compound 101, (E)-4-(2-(3-carboxybenzylidene)hydrazinecarbonyl)-2-(2,5-dimethyl-1H-pyrrol-1-yl)benzoic acid]
EC50 [3]: 10 to 100 µM
c-Myc/Max/Ebox DNA complex formation [5, 13]: potently disrupted
Max/Max/Ebox DNA complex formation [9]: potently disrupted
MITF/MITF/Ebox DNA complex formation [8]: potently disrupted
biochemical activity ([4]; FIG. 4): increased biochemical activity
IC50 [4, 11]: 1 to 10 µM

Structure (SMILES): Cc1ccc(C)n1-c1ccccc1-c1nnn[nH]1 [Compound 162]
EC50 ([1]; Homo sapiens, NCI-H2171, 72 h): 24.2 µM
EC50 ([2]; Homo sapiens, MM1.S, 72 h): 66 µM
EC50 [3]: ≥ 100 µM
IC50 [4, 12]: 151 µM
IC50 [4, 11]: ≥ 100 µM

Structure (SMILES): Cc1ccc(C)n1-c1cc(-c2nnc(-c3cccc(C(=O)NS(C)(=O)=O)c3)o2)ccc1C(=O)O [Compound 222]
EC50 [3]: 10 to 100 µM
IC50 [4, 11]: 10 to 100 µM

Structure (SMILES): Cc1ccc(C)n1-c1cc(C(=O)O)ccc1C(=O)NS(C)(=O)=O [Compound 223]
EC50 [3]: ≥ 100 µM
IC50 [4, 11]: 10 to 100 µM

Structure (SMILES): Cc1ccc(C)n1-c1cc(-c2nnc(-c3ccc(O)c(O)c3O)o2)ccc1C(=O)O [Compound 224]
EC50 [3]: < 10 µM
IC50 [4, 11]: < 1 µM

Structure (SMILES): COc1cccc2c1C(=O)c1c(O)c3c(c(O)c1C2=O)C[C@@](O)(C(=O)CO)C[C@@H]3O[C@H]1C[C@H](N)[C@H](O)[C@H](C)O1 [doxorubicin]
protein:DNA complex formation [10]: non-specifically disrupts protein:DNA complex formation
